According to patent US10959974B2, “Ingenol compounds and use thereof in anti-HIV latency treatment” (priority 2015, dated 2021):
Converted amounts (≈) assume the structure as drawn. Read-outs that look alike come from different tables or passages of the source.

Tests used:
[1] = tested on: latent HIV in J-Lat-A10.6 cells; assay: Activation of latent HIV in J-Lat-A10.6 cells, GFP fluorescence / flow cytometry; type: cell-based, human; settings: 48 h
Method: (§1) The HIV latent cell model of the present invention comprises: a human T cell 10.6 clone strain carrying a green fluorescent protein gene (J-Lat-A10.6), which is provided by the National Institute of Health Research AIDS Reference Reagent Planning Department, established by Dr. Eric Verdin of the University of California.
(§2) The cells are small and the spherical cells are cultured in suspension. […]
(§3) J-Lat-A10.6 or C11 cells were seeded in 96-well plates at 2×10E4 cells per well, and 100 μl of 1640 medium (Gibco) containing 10% FBS (Gibco) was added to each well. After the cells were treated with the compounds in Examples 1-7 for 48 h, the green fluorescence expression of the cells was observed under a fluorescence microscope, the cells were collected for flow cytometry detection, and the proportion of fluorescent cells was analyzed.
(§4) J-Lat-A10.6 or C11 cells were seeded in 96-well plates at 2×10E4 cells per well, and 100 μl of 1640 medium (Gibco) containing 10% FBS (Gibco) was added to each well. After treatment with different concentrations of compounds (such as the compounds in Examples 1-7) and Prostratin for 48 h, the cells were collected for flow cytometry detection and the proportion of fluorescent cells was analyzed.

latent HIV in C11 cells = assay: Activation of latent HIV in C11 cells, GFP fluorescence / flow cytometry; type: cell-based; settings: for EC50: read-out: EC50 of activation of latent HIV-1
Method: The cells are small and the spherical cells are cultured in suspension. Human T cell Jurkat […] cells are transfected by the retroviral vector carrying the green fluorescent protein gene HIV-R7/E-/GFP and sorted (Jordan A, Bisgrove D, Verdin E. HIV reproducibly establishes a latent infection after acute infection EMBO J 22:1868-1877, 2003); another established HIV latent screening model C11 clone is obtained by the twice of the sorting and activation on HIV lentivirus-infected T cells. (Chinese patent: 200810038851. X).
as §3, §4

[2] = tested on: latent HIV in J-Lat-A10.6 or C11 cells; assay: Activation of HIV expression in latent cells, flow cytometry of green fluorescent cells (cell line not given); type: cell-based, human; settings: treated 48 h
Method: as §1, §2, §3, §4

[3] = tested on: cells in the known HIV-infected latent reservoir; assay: Treatment of cells of the HIV-infected latent reservoir with compound, then antiretroviral drugs; type: cell-based; settings: compound treatment followed by antiretroviral drugs, versus untreated viral latent reservoir
[4] = tested on: resting CD4+ T cells isolated from the peripheral blood of AIDS patients; assay: Activation of latent HIV in peripheral blood resting CD4+ T cells of AIDS patients, real-time PCR of HIV-1 mRNA; type: cell-based, human; settings: 0.005 μM, 18 h; compared with control and 5 μg/ml PHA treated cells
Method: The resting CD4+ T cells isolated from the peripheral blood of 5 AIDS patients were treated with 5 μg/ml PHA (phytohemagglutinin) (positive control) and 0.005 μM compound 16A for 18 h, and then HIV-1 mRNA was extracted from resting CD4+ T cells and the medium, real-time PCR was used to detect the change of HIV-1 mRNA expression level in resting CD4+ T cells and medium, respectively.

Compound | EC50 ([1]; Homo sapiens, flow cytometry, read-out: EC50 of activation of latent HIV-1) | EC50 (latent HIV in C11 cells; Human immunodeficiency virus 1, 48 h) | proportion of green fluorescent positive cells ([1]; 10 nM, background about 1-2%) | EC50 ([2]; flow cytometry, J-Lat-A10.6 or C11 cells (not specified for Table 1)) | activation rate ([2]; proportion of fluorescent cells, J-Lat-A10.6 or C11 cells (not specified), untreated control 2%) | number of viral latent reservoir [3] | intracellular activated HIV-mRNA [4] | proportion of green fluorescent positive cells (latent HIV in C11 cells; 10 nM, 48 h, C11 cells) | EC50 (latent HIV in C11 cells; C11 cells, 48 h, flow cytometry)
CC(=O)O[C@@]12C[C@@H](C)[C@@]3(O)[C@@H](C=C(CO)C[C@]4(O)C(=O)C(C)=C[C@@H]34)[C@@H]1C2(C)C [Prostratin, reference compound] | 860 nM | 760 nM | – | – | – | – | – | – | –
CCCCCCCCCCCC(=O)O[C@@]12C[C@@H](C)[C@]34C=C(C)[C@H](OC(=O)C(C)C(C)C)[C@@]3(O)[C@H](O)C(CO)=C[C@H](C4=O)[C@@H]1C2(C)C (stereo partly drawn) [Example 1, 3-O-(2,3-dimethylbutanoyl)-13-O-dodecanoyl ingenol] | – | – | 90% | 2.6 ng/mL (≈ 4.03 nM) | 93% | significantly lower | significantly higher | ~80% | 3.53 nM
